26 compounds from patent publication US20230406803A1, “TROPOLONE DERIVATIVES AND TAUTOMERS THEREOF FOR IRON REGULATION IN ANIMALS” (Kinesid Therapeutics, Inc, priority 2020, published 2023) can be followed below.

SMILES strings stand for the structures. A value given as a limit tells only on which side of the number the result lay.

Data set [1] is described as follows: Ligand facilitated Fe(III) efflux from liposomes. It counts as biochemical. More on the design: unit not given here. As to conditions: efflux rate k at 10 μM ligand concentration; ferrozine absorbance 562 nm, 120 min kinetic read. On the procedure:
Assay 1: Ligand Facilitated Fe(III) Efflux from Liposomes
Preparation of POPC (1 palmitoyl-2-oleoyl-sn-glycero-3 phosphocholine): Cholesterol Liposomes
A 1M buffer solution of MES and Tris was prepared by dissolving 121.14 grams of Tris base and 213.25 grams of MES hydrate in 500 mL of MilliQ water and adjusted to pH7.0 using an […] HCl solution before bringing the total volume of the solution to 1 L. A 500 mM solution of FeCl3 was prepared by dissolving 0.811 grams of anhydrous FeCl3 in 10 mL of a 0.1M H2SO4 aqueous solution. Inside buffer is prepared in a 50 mL falcon tube, which was added with 25 mL of MilliQ water, 1.61 g of sodium citrate, 1.5 mL of the above FeCl3 solution, and 2.5 mL of the 1M MES/Tris HCl buffer (pH=7.0), and finally additional MilliQ H2O to bring to a 50 mL final volume.
Lipid solution is prepared by dissolving 206.9 mg of POPC (1-palmitoyl-2-oleoyl-sn-glycero-3-phosphocholine) and 8.6 mg of cholesterol in 10 mL of ethanol.
The lipids solution and the inside buffer solution are independently loaded into 10 mL luer lock syringes for loading into a virgin cartridge on a Precision Nanosystems NanoAssembler to prepare unilamaller liposomes with the following parameters: 7.5 mL total volume, 1.5:1 mixing ratio of inside buffer:lipids solution, 8 mL/min flow rate, ambient temperature, 0.35 mL start waste, and 0.05 mL of end waste. 7.5 mL of liposomes is harvested for purification on a 6-inch long, 1-inch diameter Sephadex G-50 column wetted in 600 mM sodium ascorbate and 50 mM MES/Tris HCl pH 7.0 buffer. This buffer also serves as the column running buffer. The crude liposome solution is carefully loaded with minimal volume of running buffer above the top of the Sphadex, allowed to enter the matrix, and the column is run with the continued addition of running buffer. The eluting liposomes, observed as a milky and turbid solution, are collected until free iron begins to elute (observed as a deep purple color) and the fractions are pooled for phosphorus quantitation.
Determination of Phosphorus Content:
Phosphorus content of eluted liposomes was determined by the process outlined below. 10 μL of liposome elution and a running buffer blank are added to a 5 mL glass vial containing 450 μL of a 8.9 M aqueous H2SO4 solution, the mixture is heated to 225° C. for 25 minutes in an aluminum heat block to hydrolyze POPC and cooled for 5 minutes. 200 μL of a 30% hydrogen peroxide aqueous solution is added to each vial and heated to 225° C. for 25 minutes. After cooling, the phosphorus content was determined using an Abcam Phosphate Assay kit, with buffer subtracted phosphorus levels determined against a standard curve of phosphate included in the kit. Liposomes were diluted to 1 mM phosphate in Running Buffer for use in assays after accounting for dilutions made during phospholipid digestion.
Determination of the Iron Transporting Rate Constant of the Ligands:
Determination of the rate at which a small molecule ligand liberates (transport) Ferric iron from liposomes is performed in clear bottom black 384-well plates on a Spectramax i3x set to read the absorbance at 562 nm in the kinetic mode every 60 seconds for 120 minutes. 1 μL of serially diluted DMSO stock solution of a small molecule ligand is added to wells in triplicate to give the final concentrations of 40, 20, 10, 5, 2.5, and 1.25 uM of the ligand at 80 μL final volume, followed by addition of 1 μL of 100 mM Ferrozine in water to give a final concentration of 1 mM ferrozine. 78 μL of liposomes diluted to 1 mM phosphorus in running buffer is added to wells as quickly as possible (using a digital repeater multichannel pipette) with the kinetic read initiated as rapidly as possible after addition of liposomes to all wells. Typically, eight compounds at six concentrations are tested in triplicate simultaneously. […]

In data set [2] the test system is DMT1-deficient Caco-2 cells. In words: shDMT1-Caco2 55Fe transport assay. It counts as cell-based. Particulars: Caco-2. The text has this: Assay 2: shDMT1-Caco2 ^55Fe Transport Assay to Assess Ligand Ability in Transporting Fe (III)
Cells: DMT1-deficient Caco-2 cells (alias: “shDMT1,” or “4A” cells) were from Grillo et al. Science, 2017, and were cryopreserved in liquid nitrogen prior to use.
Reagents and supplies: ^55FeCl3 was obtained from PerkinElmer (Boston, MA). Iron(III) chloride (FeCl3) hexahydrate was obtained from Sigma. Dulbecco's Modified Eagle Medium (DMEM), fetal bovine serum (FBS), L-glutamine, MEM nonessential amino acids, penicillin-streptomycin, G418, formic acid, methanol, high-purity water, ammonium formate, dimethyl sulfoxide (DMSO) were purchased from Fisher Scientific. Propranolol, atenolol and carbutamide were obtained from Sigma-Aldrich Chemical Company (St Louis, MO). Scintillation cocktail was obtained from Research Product International Co. (Mount Prospect, IL). Stericup filter system (PES membrane, 0.22 um pore size) was purchased from Fisher Scientific. Corning item #3378 24-well transwell insert plates.
Test articles: known compounds hinokitiol and deferiprone were purchased from Sigma. They are tested side by side with the small molecule ligands disclosed in this application. DMSO stocks (10 mM, which is 1,000× of the 10 μM dose level) of hinokitiol or test articles were prepared. A stock solution of 25 mM deferiprone in DMSO was prepared. The DMSO stock solutions were stored at −20° C. or below when not in use.
The growth medium was prepared according to the following table
Apical media (serum free DMEM, 10 mM MES, pH 6.5) was prepared. Apical master mix media was prepared fresh with the addition of 200 nM ^55Fe before each experiment. For the negative control propranolol and atenolol wells, 200 nM of non-radioactive iron was used.
The basolateral media was serum-free DMEM, 10 mM HEPES, 2% bovine serum albumin (BSA), pH 7.4.
For each experiment, cells were seeded into the 24-well transwell plates (0.5 mL of 50,000 cells/mL) with growth media. The basolateral companion plate was loaded with 1 mL of growth media. After 12-24 hr, both the apical and basolateral chamber were replaced with growth media. The apical media was changed 3× per week for 21-28 days, including a media change exactly 48 hr before the assay date.
On the assay day, the TEER values were measured and the average TEER value was obtained. Individual wells with TEER value >35% lower than the average of all wells were excluded. For the qualified wells, the apical layer (twice) and basolaterial (once) chambers were washed with PBS. The basolateral companion plate was then filled with 1 mL of basolateral media. Via addition down the side-wall of the apical well, 300 μL per well of the apical assay master mix, with the indicated dose level of test article, was added. Each dose was tested in triplicate. The plates were incubated (5% CO2 and 90% humidity at 37° C.) for the indicated timepoints. At each indicated timepoint, the basolateral supernatant was gently mixed via pipetting, and 200 μL of the basolateral supernatant was transferred to scintillation vials. To each scintillation counting vial, 5 mL of scintillation cocktail fluid was added. For each scintillation vial, the radioactivity (CPM) was determined with liquid scintillation counter LS6500. The counting time per vial was 5 min.
All raw CPM values are divided by the average value of blank DMSO solution to give a fold of change above the DMSO value. The mean and standard deviation of each compound at each concentration level and at each time point measured was calculated to give the fold change (fc) value. For rank order compounds, the fc value of a ligand at 4 h time point is further divided by the fold change (fc) value of hinokitiol (a positive control compound) at an equimolar concentration to arrive at the FC (normalized fold of change) value. Data reported in Tables 1 and 2 is 4 hr time point FC=fc-ligand @ 3 uM/fc-hino @ 3 μM, and FC hino=1.

For `O=c1ccccc(OCC2CC2)c1O` [drawing 260], the “Liposome Fe transport kefflux at 10 μM” value in data set [1] is reported as 10-25. Moreover, the “Caco2 shDMT1 transport FC @ 3 μM, 4 h” value in data set [2] was 1-5.

With `O=c1c(F)cccc(C2CCCO2)c1O` (stereo not shown), the “Liposome Fe transport kefflux at 10 μM” value in data set [1] was 5-7.5. For the same compound, the “Caco2 shDMT1 transport FC @ 3 μM, 4 h” value in data set [2] was 0.01-0.5.

Consider `O=c1ccccc([C@H]2CCCO2)c1O`, for which the “Liposome Fe transport kefflux at 10 μM” value in data set [1] was 7.5-10. The “Caco2 shDMT1 transport FC @ 3 μM, 4 h” value in data set [2] is 0.1-5.

For `CCOc1ccc(O)c(=O)cc1`, the “Liposome Fe transport kefflux at 10 μM” value in data set [1] is 7.5-10. In addition, the “Caco2 shDMT1 transport FC @ 3 μM, 4 h” value in data set [2] is listed as 0.01-0.5.

On to `CC(=O)N1CCC(c2ccc(O)c(=O)cc2)CC1`, for which the “Liposome Fe transport kefflux at 10 μM” value in data set [1] is 5-7.5. Also, in data set [2], the “Caco2 shDMT1 transport FC @ 3 μM, 4 h” value is 0.01-0.5.

Take `O=c1ccc(C2CC3CCC(C2)O3)ccc1O` (stereo not shown): the “Liposome Fe transport kefflux at 10 μM” value in data set [1] is on record as 0.1-5. Moreover, in data set [2], the “Caco2 shDMT1 transport FC @ 3 μM, 4 h” value is on record as 0.01-0.5.

As for `O=c1c(O)ccc(OC2CCC2)cc1F`, the “Liposome Fe transport kefflux at 10 μM” value in data set [1] is 10-25. Further, the “Caco2 shDMT1 transport FC @ 3 μM, 4 h” value in data set [2] is 0.01-0.5.

In the case of `CC(C)Oc1cccc(=O)c(O)c1`, the “Liposome Fe transport kefflux at 10 μM” value in data set [1] is on record as 5-7.5. In addition, in data set [2], the “Caco2 shDMT1 transport FC @ 3 μM, 4 h” value is reported as 0.5-1.

As to `Cc1ccc(O)c(=O)c(F)c1`, in data set [1], the “Liposome Fe transport kefflux at 10 μM” value was 0.1-5. In addition, the “Caco2 shDMT1 transport FC @ 3 μM, 4 h” value in data set [2] is reported as 0.01-0.5.

Turning to `O=c1cccc(C2CCCO2)cc1O` (stereo not shown), the “Liposome Fe transport kefflux at 10 μM” value in data set [1] was 7.5-10. For the same compound, the “Caco2 shDMT1 transport FC @ 3 μM, 4 h” value in data set [2] is on record as 0.01-0.5.

As to `Cc1ccc(C(F)(F)F)c(=O)c(O)c1`, the “Liposome Fe transport kefflux at 10 μM” value in data set [1] is 7.5-10. In data set [2], the “Caco2 shDMT1 transport FC @ 3 μM, 4 h” value is 0.01-0.5.

Turning to `Cc1ccc(O)c(=O)c(C)c1`, in data set [1], the “Liposome Fe transport kefflux at 10 μM” value is recorded as 5-7.5. Moreover, in data set [2], the “Caco2 shDMT1 transport FC @ 3 μM, 4 h” value is 1-5.

Turning to `Cc1cccc(Cl)c(=O)c1O`, the “Liposome Fe transport kefflux at 10 μM” value in data set [1] was 5-7.5. For the same compound, the “Caco2 shDMT1 transport FC @ 3 μM, 4 h” value in data set [2] was 0.01-0.5.

`O=c1ccc(C2CC3CC3C2)ccc1O` (stereo not shown): in data set [1], the “Liposome Fe transport kefflux at 10 μM” value is reported as 5-7.5. Moreover, the “Caco2 shDMT1 transport FC @ 3 μM, 4 h” value in data set [2] was 0.01-0.5.

For the compound `O=c1ccc([C@@H]2CCC[C@H]2O)ccc1O`, in data set [1], the “Liposome Fe transport kefflux at 10 μM” value is reported as 7.5-10. Moreover, the “Caco2 shDMT1 transport FC @ 3 μM, 4 h” value in data set [2] is 0.01-0.5.

Consider `O=c1cccc(OC2COC2)cc1O`, for which the “Liposome Fe transport kefflux at 10 μM” value in data set [1] is recorded as 0.1-5. Further, in data set [2], the “Caco2 shDMT1 transport FC @ 3 μM, 4 h” value is reported as 0.01-0.5.

For `O=c1c(F)cccc(C2CCOCC2)c1O` [drawing 211], the “Liposome Fe transport kefflux at 10 μM” value in data set [1] is given as 5-7.5. Also, in data set [2], the “Caco2 shDMT1 transport FC @ 3 μM, 4 h” value is on record as 0.01-0.5.

As for `CCc1ccc(O)c(=O)c(F)c1`, the “Liposome Fe transport kefflux at 10 μM” value in data set [1] was 0.1-5. Further, the “Caco2 shDMT1 transport FC @ 3 μM, 4 h” value in data set [2] was 0.01-0.5.

For `O=c1ccccc(OC2CCC2)c1O` [drawing 233], the “Liposome Fe transport kefflux at 10 μM” value in data set [1] is reported as 7.5-10. In addition, in data set [2], the “Caco2 shDMT1 transport FC @ 3 μM, 4 h” value is listed as 0.01-0.5.

`O=c1cccc(C2CC3CCC(C2)O3)cc1O` (stereo not shown) [drawing 181]: in data set [1], the “Liposome Fe transport kefflux at 10 μM” value was 7.5-10. The “Caco2 shDMT1 transport FC @ 3 μM, 4 h” value in data set [2] is 0.01-0.5.

Take `O=c1c(O)ccccc1F`: the “Liposome Fe transport kefflux at 10 μM” value in data set [1] is recorded as 0.1-5. Moreover, the “Caco2 shDMT1 transport FC @ 3 μM, 4 h” value in data set [2] was 0.01-0.5.

For `Cc1ccc(O)c(=O)c(C(F)(F)F)c1`, the “Liposome Fe transport kefflux at 10 μM” value in data set [1] is on record as 10-25. Also, the “Caco2 shDMT1 transport FC @ 3 μM, 4 h” value in data set [2] is reported as 0.01-0.5.

Consider `O=c1ccccc(C2CCOC2)c1O` (stereo not shown), for which the “Liposome Fe transport kefflux at 10 μM” value in data set [1] is recorded as below 0.1. The “Caco2 shDMT1 transport FC @ 3 μM, 4 h” value in data set [2] was 0.01-0.5.

Take `O=c1cccc(OC2CC2)cc1O`: the “Liposome Fe transport kefflux at 10 μM” value in data set [1] is 5-7.5. Besides, the “Caco2 shDMT1 transport FC @ 3 μM, 4 h” value in data set [2] is on record as 1-5.

As to `O=c1c(O)cc(C2CC2)ccc1F` [drawing 209], in data set [1], the “Liposome Fe transport kefflux at 10 μM” value is reported as 7.5-10. Besides, in data set [2], the “Caco2 shDMT1 transport FC @ 3 μM, 4 h” value was 0.01-0.5.

`O=c1ccccc([C@@H]2CCCO2)c1O`: the “Liposome Fe transport kefflux at 10 μM” value in data set [1] was 7.5-10. Further, the “Caco2 shDMT1 transport FC @ 3 μM, 4 h” value in data set [2] is 0.1-5.
